Structures can show the parent of a compound that is named as a salt.

As usually defined, the Ki is the equilibrium dissociation constant of an inhibitor or competing ligand from its target.

For the first assay, the target named is human 5-HT6 receptor (Homo sapiens (Human), UniProt P50406). The assay is described as follows: radioligand binding assay (SPA format), [N-methyl-3H]-LSD. Conditions: human 5HT6 Ki, human 5-HT6 receptor membranes, 10 nM [3H]-LSD.
Chain of human 5-HT6 receptor (P50406 whole entry): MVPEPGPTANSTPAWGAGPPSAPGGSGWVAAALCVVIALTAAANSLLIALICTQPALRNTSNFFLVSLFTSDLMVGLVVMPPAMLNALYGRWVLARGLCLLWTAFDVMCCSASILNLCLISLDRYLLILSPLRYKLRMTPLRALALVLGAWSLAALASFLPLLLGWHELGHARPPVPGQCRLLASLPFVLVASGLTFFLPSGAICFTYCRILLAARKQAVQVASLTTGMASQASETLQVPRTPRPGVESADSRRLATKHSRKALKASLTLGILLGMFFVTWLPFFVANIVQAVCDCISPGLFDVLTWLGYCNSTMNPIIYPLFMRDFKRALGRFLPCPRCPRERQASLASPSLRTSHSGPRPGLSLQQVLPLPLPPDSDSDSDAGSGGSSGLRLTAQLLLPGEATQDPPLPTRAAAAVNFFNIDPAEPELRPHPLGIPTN
Regarding `COc1cc(S(=O)(=O)c2cccc(C(F)(F)F)c2)cc2c3c(n(C)c12)CC1CCC3N1` (centres unmarked) [Example 215], the affinity, expressed as Ki, was 1.8 nM.

As to `COc1cc(S(=O)(=O)c2cccc(C(F)(F)F)c2)cc2c3c(n(C)c12)CC1CCC3N1` (centres unmarked) [Example 216], the affinity corresponds to a Ki of 0.8 nM.

The assay is the same for the next values; noted with them: read-out: human 5HT6 Ki; human 5-HT6 receptor membranes, 10 nM [3H]-LSD.
As to `COc1cc(S(=O)(=O)c2ccc3[nH]ccc3c2)cc2c3c(n(C)c12)CC1CCC3N1` (centres unmarked) [Example 145], the Ki was determined as 0.31 nM.

As to `Cn1c2c(c3cc(S(=O)(=O)c4cccc5ncccc45)ccc31)C1CCC(C2)N1` (centres unmarked) [Example 110], the Ki was determined as 148 nM.

With `Cc1cn(S(=O)(=O)c2ccc3c(c2)c2c(n3C)CC3CCC2N3)c2ccccc12` (centres unmarked) [Example 202], the Ki amounted to 0.72 nM.

Consider `Cn1c2c(c3cc(S(=O)(=O)c4csc5ccccc45)cc(F)c31)C1CCC(C2)N1` (centres unmarked) [Example 139], for which the Ki came out at 0.47 nM.

Take `Cn1c2c(c3cc(S(=O)(=O)c4ccccc4)cc(N4CCCC4)c31)C1CCC(C2)N1` (centres unmarked) [Example 156]: the Ki was determined as 52 nM.

In the case of `CCc1cc(S(=O)(=O)c2ccccc2)cc2c3c(n(C)c12)CC1CCC3N1` (centres unmarked) [Example 80, 2-Phenylsulfonyl-4-ethyl-5-methyl-5,6,7,8,9,10-hexahydro-7,10-epiminocyclohepta[b]indole hydrochloride], the Ki came out at 17 nM.

For `Cc1cc2ccccc2n1S(=O)(=O)c1ccc2c(c1)c1c(n2C)CC2CCC1N2` (centres unmarked) [Example 126], the Ki was 7.2 nM.

Regarding `CN1C2CCC1c1c(n(C)c3ccc(S(=O)(=O)c4ccc5[nH]ccc5c4)cc13)C2` (centres unmarked) [Example 134], the Ki turned out to be 0.26 nM.

In the case of `Cn1c2c(c3cc(S(=O)(=O)c4cccc5cccnc45)ccc31)C1CCC(C2)N1` (centres unmarked) [Example 170], the Ki turned out to be 17 nM.

On to `CCOc1cc(S(=O)(=O)c2ccccc2)cc2c3c(n(C)c12)CC1CCC3N1` (centres unmarked) [Example 235], for which the Ki is 0.42 nM.

For `Cn1c2c(c3cc(S(=O)(=O)c4ccc5cc[nH]c5c4)ccc31)C1CCC(C2)N1` (centres unmarked) [Example 95], the Ki is 5.8 nM.

In the case of `Cc1cc(S(=O)(=O)c2cn(C)c3ccccc23)cc2c3c(n(C)c12)CC1CCC3N1` (centres unmarked) [Example 140], the Ki came to 0.56 nM.

For `Cn1cc(S(=O)(=O)c2ccc3c(c2)c2c(n3C)CC3CCC2N3)c2ccccc21` (centres unmarked) [Example 166], the Ki is 0.41 nM.

With `Cn1c2c(c3cc(S(=O)(=O)c4ccccc4)cc(OCc4ccccn4)c31)C1CCC(C2)N1` (centres unmarked) [Example 154], the Ki came to 80 nM.

`Cn1c2c(c3cc(S(=O)(=O)n4ccc5ccc(C#N)cc54)ccc31)C1CCC(C2)N1` (centres unmarked) [Example 127]: the Ki worked out at 1.5 nM.

For the compound `Cn1c2c(c3cc(S(=O)(=O)c4cccc(OCc5ccncc5)c4)ccc31)C1CCC(C2)N1` (centres unmarked) [Example 133], the Ki was found to be 11 nM.

Consider `Cn1c2c(c3cc(S(=O)(=O)n4ccc5cc(Cl)ccc54)ccc31)C1CCC(C2)N1` (centres unmarked) [Example 195], for which the Ki was determined as 4.6 nM.

On to `Cn1c2c(c3cc(S(=O)(=O)n4cc(F)c5ccccc54)ccc31)C1CCC(C2)N1` (centres unmarked) [Example 129], for which the Ki was 2.7 nM.

As to `CCN1C2CCC1c1c(n(C)c3ccc(S(=O)(=O)c4ccc5[nH]ccc5c4)cc13)C2` (centres unmarked) [Example 185], the Ki is 1.5 nM.

Take `Cn1c2c(c3cc(S(=O)(=O)c4ccccc4)cc(OC(F)(F)F)c31)C1CCC(C2)N1` (centres unmarked) [Example 150]: the Ki is 70 nM.

With `Cn1c2c(c3cc(S(=O)(=O)c4ccc5sccc5c4)ccc31)C1CCC(C2)N1` (centres unmarked) [Example 168], the Ki was 3.3 nM.

As for `COc1cc(S(=O)(=O)n2ccc3ccc(C#N)cc32)cc2c3c(n(C)c12)CC1CCC3N1` (centres unmarked) [Example 243], the Ki stood at 0.58 nM.

`Cn1c2c(c3cc(S(=O)(=O)c4ccc5sccc5c4)ccc31)C1CCC(C2)N1` (centres unmarked) [Example 167]: the Ki amounted to 7.5 nM.

For `Cc1cn(S(=O)(=O)c2ccc3c(c2)c2c(n3C)CC3CCC2N3)c2ccccc12` (centres unmarked) [Example 201], the Ki stood at 1.4 nM.

Take `CC(C)n1ccc2cc(S(=O)(=O)c3ccc4c(c3)c3c(n4C)CC4CCC3N4)ccc21` (centres unmarked) [Example 117]: the Ki worked out at 4.4 nM.

Turning to `COCCn1ccc2cc(S(=O)(=O)c3ccc4c(c3)c3c(n4C)CC4CCC3N4)ccc21` (centres unmarked) [Example 120], the Ki is 64 nM.

On to `CN1C2CCC1c1c(n(C)c3ccc(S(=O)(=O)c4ccccc4)cc13)C2` (centres unmarked) [Example 69, 2-Phenylsulfonyl-5-methyl-5,6,7,8,9,10-hexahydro-7,10-N-methyl-epiminocyclohepta[b]indole hydrochloride], for which the Ki was 7.8 nM.

Consider `Cn1c2c(c3cc(S(=O)(=O)c4cccc5cc[nH]c45)ccc31)C1CCC(C2)N1` (centres unmarked) [Example 99], for which the Ki turned out to be 4.5 nM.

As to `CC(C)n1c2c(c3cc(S(=O)(=O)c4ccccc4)ccc31)C1CCC(C2)N1` (centres unmarked) [Example 182], the Ki was found to be 365 nM.

Regarding `Cn1c2c(c3cc(S(=O)(=O)c4cccc(C(F)(F)F)c4)cc(O)c31)C1CCC(C2)N1` (centres unmarked) [Example 209], the Ki was 0.53 nM.

As to `Cn1c2c(c3cc(S(=O)(=O)c4ccccc4F)ccc31)C1CCC(C2)N1` (centres unmarked) [Example 112], the Ki was 4.6 nM.

Take `Cn1c2c(c3cc(S(=O)(=O)c4cn(-c5ccccc5)c5ccccc45)ccc31)C1CCC(C2)N1` (centres unmarked) [Example 103]: the Ki is 9.3 nM.

As to `Cn1c2c(c3cc(S(=O)(=O)c4ccc(C#N)cc4)ccc31)C1CCC(C2)N1` (centres unmarked) [Example 178], the Ki stood at 454 nM.

Regarding `COc1cc(S(=O)(=O)n2cc(C#N)c3ccccc32)cc2c3c(n(C)c12)CC1CCC3N1` (centres unmarked) [Example 149], the Ki was found to be 1.2 nM.

`Cn1c2c(c3cc(S(=O)(=O)c4cccc(-n5cccn5)c4)ccc31)C1CCC(C2)N1` (centres unmarked) [Example 244]: the Ki was 14 nM.

For `Cn1c2c(c3cc(S(=O)(=O)c4ccccc4F)cc(O)c31)C1CCC(C2)N1` (centres unmarked) [Example 210], the Ki was determined as 1 nM.

`COc1cc(S(=O)(=O)n2ccc3ccccc32)cc2c3c(n(C)c12)CC1CCC3N1` (centres unmarked) [Example 240]: the Ki was 0.85 nM.

Take `CCN1C2CCC1c1c(n(C)c3ccc(S(=O)(=O)c4ccc5[nH]ccc5c4)cc13)C2` (centres unmarked) [Example 186]: the Ki stood at 0.77 nM.

On to `Cc1cc(S(=O)(=O)c2csc3ccccc23)cc2c3c(n(C)c12)CC1CCC3N1` (centres unmarked) [Example 141], for which the Ki was 0.29 nM.

As for `COc1cc(S(=O)(=O)c2cccc(F)c2)cc2c3c(n(C)c12)CC1CCC3N1` (centres unmarked) [Example 222], the Ki turned out to be 0.56 nM.

With `Cn1c2c(c3cc(S(=O)(=O)c4cccc5ccncc45)ccc31)C1CCC(C2)N1` (centres unmarked) [Example 131], the Ki was 13 nM.

As to `COc1cc(S(=O)(=O)c2cccc(Cl)c2)cc2c3c(n(C)c12)CC1CCC3N1C` (centres unmarked) [Example 225], the Ki stood at 0.53 nM.

As for `Cn1c2c(c3cc(S(=O)(=O)c4cc(F)ccn4)ccc31)C1CCC(C2)N1` (centres unmarked) [Example 96], the Ki is 341 nM.

Regarding `COc1cc(S(=O)(=O)c2cccc(Cl)c2)cc2c3c(n(C)c12)CC1CCC3N1C` (centres unmarked) [Example 226], the Ki is 1 nM.

Turning to `COc1cc(S(=O)(=O)c2cncc3ccccc23)cc2c3c(n(C)c12)CC1CCC3N1` (centres unmarked) [Example 233], the Ki turned out to be 3.7 nM.

As for `Cn1c2c(c3cc(S(=O)(=O)c4ccc(C#N)cc4)ccc31)C1CCC(C2)N1` (centres unmarked) [Example 177], the Ki is 747 nM.

With `COc1cc(S(=O)(=O)c2cncc3ccccc23)cc2c3c(n(C)c12)CC1CCC3N1` (centres unmarked) [Example 232], the Ki was 9.6 nM.

On to `Cn1c2c(c3cc(S(=O)(=O)c4ccccc4O)ccc31)C1CCC(C2)N1` (centres unmarked) [Example 105], for which the Ki stood at 100 nM.

With `CC(C)n1c2c(c3cc(S(=O)(=O)c4ccccc4)ccc31)C1CCC(C2)N1` (centres unmarked) [Example 181], the Ki was determined as 284 nM.

As to `Cn1c2c(c3cc(S(=O)(=O)c4ccccc4Cl)ccc31)C1CCC(C2)N1` (centres unmarked) [Example 115], the Ki was found to be 4.8 nM.

On to `Cn1c2c(c3cc(S(=O)(=O)c4cc(Cl)ccn4)ccc31)C1CCC(C2)N1` (centres unmarked) [Example 97], for which the Ki is 104 nM.

For `Cn1c2c(c3cc(S(=O)(=O)c4ccccc4)cc(OCc4cccnc4)c31)C1CCC(C2)N1` (centres unmarked) [Example 155], the Ki came out at 129 nM.

Take `Cn1c2c(c3cc(S(=O)(=O)c4cn(Cc5ccccc5)c5ccccc45)ccc31)C1CCC(C2)N1` (centres unmarked) [Example 102]: the Ki is 0.71 nM.

For the compound `Cn1c2c(c3cc(S(=O)(=O)c4ccnc5ccccc45)ccc31)C1CCC(C2)N1` (centres unmarked) [Example 132], the Ki was found to be 39 nM.

For `Cn1c2c(c3cc(S(=O)(=O)c4ccccc4)ccc31)C1CCCC(C2)N1` (centres unmarked) [Example 92, 2-(Phenylsulfonyl)-5-methyl-6,7,8,9,10,11-hexahydro-5H-7,11-epiminocycloocta[b]indole hydrochloride], the Ki came out at 150 nM.

`Cn1c2c(c3cc(S(=O)(=O)n4ccc5ccc(C#N)cc54)ccc31)C1CCC(C2)N1` (centres unmarked) [Example 200]: the Ki was 0.75 nM.

With `Cn1c2c(c3cc(S(=O)(=O)c4ccccc4)cc(C#N)c31)C1CCC(C2)N1` (centres unmarked) [Example 142], the Ki was 115 nM.

As for `CN1C2CCC1c1c(n(C)c3ccc(S(=O)(=O)c4ccc5[nH]ccc5c4)cc13)C2` (centres unmarked) [Example 183], the Ki amounted to 0.42 nM.

For the compound `COc1cc(S(=O)(=O)n2ccc3ccc(C#N)cc32)cc2c3c(n(C)c12)CC1CCC3N1` (centres unmarked) [Example 242], the Ki was determined as 2.4 nM.

Take `COc1cc(S(=O)(=O)c2cccc(-n3cccn3)c2)cc2c3c(n(C)c12)CC1CCC3N1` (centres unmarked) [Example 247]: the Ki came to 1.5 nM.

Consider `Cn1cc(S(=O)(=O)c2ccc3c(c2)c2c(n3C)CC3CCC2N3)c2ccccc21` (centres unmarked) [Example 165], for which the Ki was determined as 0.81 nM.

Turning to `Cn1c2c(c3cc(S(=O)(=O)c4cccc(-n5cccn5)c4)ccc31)C1CCC(C2)N1` (centres unmarked) [Example 245], the Ki came out at 9 nM.

For the compound `CN(C)C(=O)COc1cc(S(=O)(=O)c2ccccc2)cc2c3c(n(C)c12)CC1CCC3N1` (centres unmarked) [Example 153], the Ki amounted to 581 nM.

For the compound `COc1cc(S(=O)(=O)c2cn(C)c3ccccc23)cc2c3c(n(C)c12)CC1CCC3N1` (centres unmarked) [Example 224], the Ki worked out at 0.99 nM.

For the compound `Cn1c2c(c3cc(S(=O)(=O)c4cccc5cccnc45)ccc31)C1CCC(C2)N1` (centres unmarked) [Example 169], the Ki amounted to 27 nM.

In the case of `Cn1c2c(c3cc(S(=O)(=O)c4ccc5[nH]ccc5c4)ccc31)C1CCC(C2)N1Cc1ccccc1` (centres unmarked) [Example 137], the Ki came to 1.2 nM.

Values taken from US8575186B2, “Epiminocycloalkyl[b] indole derivatives as serotonin sub-type 6 (5-HT6) modulators and uses thereof” (Albany Molecular Research, Inc., priority 2009, dated 2013).
